Test results published in patent US9346757B2, “Pyridine derivatives and their use in the treatment of conditions associated with pathological thrombus formation” (SANOFI, priority 2012, dated 2016).
pIC50: −log10 of the molar value.

How the values were obtained:
Assay type in all cases: cell-based
[1] = target: T1, LPA receptor LPAR5 (Homo sapiens, UniProt Q9H1C0); assay: FLIPR assay, intracellular Ca2+ release in human mast cell line HMC-1; conditions: human mast cell line HMC-1, LPA-stimulated Ca2+ release, compound added 10 minutes prior LPA
T1 construct: two cell lines were used with high LPAR5 expression, the human mast cell line HMC-1; endogenous in cells; host or cells: HMC-1 human mast cell line
Text: (§1) B) Use of the Fluorometric Imaging Plate Reader (FLIPR) Assay for the Determination of Intracellular Ca^2+ Release in Human Mast Cell Line HMC-1 and the Murine Microglia Cell Line BV-2
(§2) The ability of the compounds of the formula I to inhibit or bind the LPA receptor LPAR5 can be assessed by determining the intracellular Ca^2+ release in human or animal cells. For the analysis of activating potential of LPA and the inhibitory effects of compounds of the formula I two cell lines were used with high LPAR5 expression, the human mast cell line HMC-1 and the murine microglia cell line BV-2 (FIGS. 1 and 2). For the FLIPR assay using human mast cells in a 96-well-format, HMC-1 suspension cells from flask culture were harvested, resuspended and counted. 14×10^6 HMC-1 cells were transferred into a new 50 ml tube, centrifuged for 3 minutes at 540×g. The resulting cell pellet at the bottom of the tube was resuspended with 15 ml loading buffer (loading buffer contained HBSS buffer (pH 7.4), 0.1% BSA (bovine serum albumin), 2 μM FLUO-4 dye; HBSS buffer (pH 7.4) contained 1×HBSS, 20 mM HEPES, 0.01% Pluronic F-127, 2.5 mM Probenicid).
Cells in loading buffer were incubated for 45-60 minutes at 37° C. After incubation cells were centrifuged for 3 minutes at 540×g and resuspended with 21 ml of HBSS buffer (pH 7.4). Each well of a poly-D-lysine coated 96-well-plate was filled with 150 μl cell solution, an equivalent of 100 000 cells/well. The 96-well-plate was centifuged for 2 minutes at 100×g (without brake) prior a recovery time of 30 minutes at 37° C. After this procedure cells were stimulated with LPA (in HBSS pH 7.4 and 0.1% BSA) to determine the EC50 of LPA in HMC-1 cells. For the determination of the inhibitory effect of compounds of the formula I, test compounds were added to the cells in the 96-well-plate 10 minutes prior the addition of LPA. Results of the assay are expressed as % activation, and are calculated using maximum peak of activation (Amax). […]

[2] = target: T2, LPA receptor LPAR5 (Mus musculus, UniProt Q149R9); assay: FLIPR assay, intracellular Ca2+ release in murine microglia cell line BV-2; conditions: murine microglia cell line BV-2, LPA-stimulated Ca2+ release, compound added 10 minutes prior LPA
T2 construct: two cell lines were used with high LPAR5 expression, the human mast cell line HMC-1 and the murine microglia cell line BV-2; endogenous in cells; host or cells: BV-2 murine microglia cell line
Text: as §1, §2
Cells in loading buffer were incubated for 45-60 minutes at 37° C. […] Results of the assay are expressed as % activation, and are calculated using maximum peak of activation (Amax). […]

[3] = target: T3, platelet LPA receptor LPAR5 (Homo sapiens, UniProt Q9H1C0); assay: Aggregation assay for washed human blood platelets (LPA-induced); conditions: reduction of maximal aggregation, 5 min preincubation at 37° C.
T3 construct: the cellular pellet, consisting of human blood platelets was then dissolved in 10 ml buffer T; endogenous in cells; host or cells: washed human blood platelets from healthy volunteers
Protocol: A) Aggregation Assay for Washed Human Blood Platelets (Thrombocytes)
Whole blood was collected from healthy volunteers using 3×20 ml syringes containing each 1/10 volume of buffered citrate. The anticoagulated whole blood was transferred into 50 ml polypropylene conical tubes (30 ml per tube). The tubes were centrifuged for 10 minutes at 150×g at room temperature without using the centrifuge brake. This procedure results in a lower phase of cellular components and a supernatant (upper phase) of platelet rich plasma (PRP). The PRP phase was collected from each tube and pooled for each donor. […] The platelet concentration was determined using a ABX Micros 60 counter. […] Platelet concentration in this solution was determined and buffer T was added to obtain a final concentration of 3.5×10^5 platelets per ml.
After 10 minutes at room temperature, 1 μl PGI2 per ml platelet solution was added and distributed into new 10 ml tubes. […] Aggregation was measured over 6 minutes at 37° C. with 1200 rpm (revolutions per minute) stirring. Results of the assay are expressed as % activation, and are calculated using maximum aggregation (Tmax) or area under curve (AUC) of the absorbance over 6 minutes. The inhibitory effect (IC50) of the test compounds was determined as the reduction of the maximal aggregation. […]

T1 sequence (Q9H1C0 whole entry): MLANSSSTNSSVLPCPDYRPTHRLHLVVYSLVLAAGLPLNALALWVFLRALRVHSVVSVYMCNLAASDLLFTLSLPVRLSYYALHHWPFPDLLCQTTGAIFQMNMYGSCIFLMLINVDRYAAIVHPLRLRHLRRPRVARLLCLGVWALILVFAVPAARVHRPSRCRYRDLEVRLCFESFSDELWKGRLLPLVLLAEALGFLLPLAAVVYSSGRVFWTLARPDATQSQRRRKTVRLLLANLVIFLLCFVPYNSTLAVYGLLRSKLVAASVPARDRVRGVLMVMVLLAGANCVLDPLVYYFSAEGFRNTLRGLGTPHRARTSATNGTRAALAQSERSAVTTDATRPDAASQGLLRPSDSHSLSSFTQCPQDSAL
T3 sequence (Q9H1C0 whole entry): as above
T2 sequence (Q149R9 whole entry): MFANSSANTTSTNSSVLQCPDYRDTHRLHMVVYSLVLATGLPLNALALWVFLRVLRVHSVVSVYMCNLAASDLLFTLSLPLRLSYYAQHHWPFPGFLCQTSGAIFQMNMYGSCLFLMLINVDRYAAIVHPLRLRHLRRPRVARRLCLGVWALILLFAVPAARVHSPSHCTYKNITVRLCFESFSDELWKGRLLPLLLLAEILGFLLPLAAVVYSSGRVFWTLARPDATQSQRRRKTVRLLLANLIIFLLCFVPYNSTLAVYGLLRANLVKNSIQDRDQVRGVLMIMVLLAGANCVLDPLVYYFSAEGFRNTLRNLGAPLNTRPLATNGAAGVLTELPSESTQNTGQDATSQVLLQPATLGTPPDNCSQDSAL

| pIC50 [1] | pIC50 [2] | pIC50 [3] | Compound |
| --- | --- | --- | --- |
| 5.43 | – | – | Cc1nc(-c2ccc(C(F)(F)F)cc2)c(-c2ccc(Cl)cc2Cl)cc1COC(C)C(=O)Nc1ccc(C(=O)O)cc1 (centres unmarked) [Example 1, 4-{2-[5-(2,4-Dichloro-phenyl)-2-methyl-6-(4-trifluoromethyl-phenyl)-pyridin-3-ylmethoxy]-propionylamino}-benzoic acid] |
| 6.89 | 5.49 | 5.44 | Cc1nc(-c2ccc(Cl)cc2)c(-c2ccc(Cl)cc2Cl)cc1COC(C)(C)C(=O)NCc1ccc(C(=O)O)cc1 [Example 14, 4-({2-[6-(4-Chloro-phenyl)-5-(2,4-dichloro-phenyl)-2-methyl-pyridin-3-ylmethoxy]-2-methyl-propionylamino}-methyl)-benzoic acid] |
| 5.74 | – | – | Cc1nc(-c2ccc(Cl)cc2)c(-c2ccc(Cl)cc2Cl)cc1COC(C)(C)C(=O)NCCCC(=O)O [Example 15, 4-{2-[6-(4-Chloro-phenyl)-5-(2,4-dichloro-phenyl)-2-methyl-pyridin-3-ylmethoxy]-2-methyl-propionylamino}-butyric acid] |
